Data: PMC12424025, “Deep Structural Characterization of Protein-Bound Lipids via Native MS and Ultraviolet Photodissociation” (Analytical Chemistry, 2025)

Target: T1, AqpZ (Escherichia coli, UniProt P60844)
T1 construct: C-terminal GFP-His tag cut by TEV protease; expressed in E. coli BL21(DE3); DDM-purified, C8E4 for native MS; homotetramer about 102 kDa with lipids (17-, m/z 6000)
T1 sequence (P60844 1-231): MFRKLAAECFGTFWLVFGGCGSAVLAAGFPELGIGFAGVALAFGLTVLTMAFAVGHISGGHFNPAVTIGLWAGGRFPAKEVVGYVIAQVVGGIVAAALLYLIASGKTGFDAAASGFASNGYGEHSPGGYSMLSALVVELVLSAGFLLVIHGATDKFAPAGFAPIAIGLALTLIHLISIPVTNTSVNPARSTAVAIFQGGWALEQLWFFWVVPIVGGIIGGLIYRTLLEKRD
Test: native MS with single lipid standard
Assay type: binding
Details: 200 mM ammonium acetate pH 7.0, 2xCMC C8E4

| SMILES | native MS with single lipid standard |
| --- | --- |
| CCCCCCCC/C=C\CCCCCCCC(=O)OC[C@H](COP(=O)(O)OCC(O)COP(=O)(O)OC[C@@H](COC(=O)CCCCCCC/C=C\CCCCCCCC)OC(=O)CCCCCCC/C=C\CCCCCCCC)OC(=O)CCCCCCC/C=C\CCCCCCCC (some centres unmarked) [CDL 18:1(9Z)] | The resulting native mass spectra confirmed that all three lipid classes bind to the membrane protein |
| CCCCCCCC/C=C\CCCCCCCC(=O)OC[C@H](COP(=O)(O)OCC(O)CO)OC(=O)CCCCCCC/C=C\CCCCCCCC (some centres unmarked) [DOPG] | The resulting native mass spectra confirmed that all three lipid classes bind to the membrane protein |
